Measurements: BigSolDB 2.1

Clc1ccc(-c2c3nc(c(-c4ccc(Cl)cc4)c4ccc([nH]4)c(-c4ccc(Cl)cc4)c4nc(c(-c5ccc(Cl)cc5)c5ccc2[nH]5)C=C4)C=C3)cc1
in ethanol
Conditions | solubility (mole fraction)
293.2 K | 1.27e-06
303.2 K | 1.63e-06
313.2 K | 1.93e-06
323.2 K | 2.25e-06
333.2 K | 2.63e-06

CN1COCN(Cc2cnc(Cl)s2)C1=N[N+](=O)[O-]
in methanol
Conditions | solubility (mole fraction)
288.15 K | 0.00111
293.15 K | 0.00141
298.15 K | 0.00169
303.15 K | 0.00225
308.15 K | 0.00294
313.15 K | 0.00397
318.15 K | 0.00486
323.15 K | 0.0063

NCCC(=O)N[C@@H](Cc1cnc[nH]1)C(=O)O
in water
Conditions | solubility (mole fraction)
288.15 K | 0.0217
293.15 K | 0.0224
298.15 K | 0.0236
303.15 K | 0.0249
308.15 K | 0.0265
313.15 K | 0.0287
318.15 K | 0.0301
323.15 K | 0.0324

N[C@@H](Cc1cnc[nH]1)C(=O)O
in water
Conditions | solubility (mole fraction)
283.15 K | 0.0035
288.15 K | 0.00384
293.15 K | 0.00417
298.15 K | 0.00459
303.15 K | 0.0051
308.15 K | 0.00562
313.15 K | 0.00613
318.15 K | 0.00667

CC(=O)N1CCN(c2ccc(OC[C@@H]3CO[C@@](Cn4ccnc4)(c4ccc(Cl)cc4Cl)O3)cc2)CC1 (racemic)
solubility (mole fraction)
Conditions | in 1,4-dioxane | in NMP | in ethanol | in isopropanol | in propylene glycol | in transcutol
293.2 K | 0.00683 | 0.019 | 0.00275 | 0.000773 | 0.00161 | 0.0116
298.2 K | 0.00833 | 0.023 | 0.00358 | 0.000948 | 0.00219 | 0.0136
303.2 K | 0.00983 | 0.0282 | 0.00434 | 0.00121 | 0.00293 | 0.0159
308.2 K | 0.0121 | 0.0321 | 0.00561 | 0.0018 | 0.00348 | 0.0189
313.2 K | 0.0139 | 0.0376 | 0.00649 | 0.00237 | 0.00507 | 0.0212

C1CN2CN3CCN(CN1C3)C2
in water
Conditions | solubility (mole fraction)
275 K | 0.0905
277 K | 0.0925
279 K | 0.0946
283 K | 0.0999
288 K | 0.105
293 K | 0.109
298 K | 0.113
303 K | 0.119
